Here are results for 14 molecules from ChEMBL document CHEMBL1146377, “Antitrypanosomal activity of quaternary naphthalimide derivatives” (Bioorg Med Chem Lett, 2007).

SMILES strings stand for the structures.

Assay [1] deals with Trypanosoma brucei brucei. Nature of the assay: Antitrypanosomal activity against Trypanosoma brucei brucei after 48 hrs. It counts as functional, organism-based.
Assay [2] can be described thus: Cytotoxicity against J774.1 cells after 48 hrs. It counts as cell-based. The following applies: Mus musculus, J774.1, 48 h.

With `CC(C)(CN1C(=O)c2cccc3cc(N)cc(c23)C1=O)C[N+](C)(C)CCCCCC[N+](C)(C)CCCN1C(=O)c2ccccc2C1=O`, the results for the 50% inhibitory concentration (IC50) in assay [1] and in assay [2] were 24.2 µM and over 100 µM, respectively.

For the molecule `CCC[N+](C)(C)CC(C)(C)CN1C(=O)c2cccc3cccc(c23)C1=O`, the values for the IC50 in assay [1] and in assay [2] were 1.2 µM and over 100 µM, respectively.

With `CC(C)(CN1C(=O)c2cccc3cccc(c23)C1=O)C[N+](C)(C)CCCCCC[N+](C)(C)CCCN1C(=O)c2cccc3cccc(c23)C1=O`, the figures for the IC50 in assay [1] and in assay [2] were 4.27 µM and over 100 µM, respectively.

Turning to `CC(C)(CN1C(=O)c2cccc3cc([N+](=O)[O-])cc(c23)C1=O)C[N+](C)(C)CCCCCC[N+](C)(C)CCCN1C(=O)c2ccccc2C1=O`, the half-inhibitory concentration (IC50) was 22.9 µM in assay [1] and over 100 µM in assay [2].

Take `CN(CCCCCCN(C)CCCN1C(=O)c2cccc3cccc(c23)C1=O)CCCN1C(=O)c2cccc3cccc(c23)C1=O`: the half-inhibitory concentration (IC50) in assay [1] turned out to be 0.03 µM; in assay [2], 3.24 µM.

As to `CC(C)(CN1C(=O)c2cccc3cccc(c23)C1=O)C[N+](C)(C)CCCCCCBr`, the half-maximal inhibitory concentration (IC50) was 0.69 µM in assay [1] and over 100 µM in assay [2].

For the molecule `CC(C)(CN1C(=O)c2cccc3ccc(N)c(c23)C1=O)C[N+](C)(C)CCCCCC[N+](C)(C)CCCN1C(=O)c2ccccc2C1=O`, the 50% inhibitory concentration (IC50) was 5.95 µM in assay [1] and over 100 µM in assay [2].

For the molecule `CC(C)(CN1C(=O)c2cccc3ccc([N+](=O)[O-])c(c23)C1=O)C[N+](C)(C)CCCCCC[N+](C)(C)CCCN1C(=O)c2ccccc2C1=O`, the half-maximal inhibitory concentration (IC50) in assay [1] was 8.78 µM; in assay [2] it was over 100 µM.

As to `Cc1ccc2c(c1)C(=O)N(CCC[N+](C)(C)CCCCCC[N+](C)(C)CC(C)(C)CN1C(=O)c3cccc4cccc(c34)C1=O)C2=O`, the IC50 is 4.62 µM in assay [1] and over 100 µM in assay [2].

In the case of `Cc1ccc2c(c1)C(=O)N(CCC[N+](C)(C)CCCCCC[N+](C)(C)CCCN1C(=O)c3cccc4cccc(c34)C1=O)C2=O`, the figures for the IC50 in assay [1] and in assay [2] were 27.9 µM and over 100 µM, respectively.

Regarding `CC(C)(CN1C(=O)c2cccc3cccc(c23)C1=O)C[N+](C)(C)CCCCCC[N+](C)(C)CC(C)(C)CN1C(=O)c2cccc3cccc(c23)C1=O`, the IC50 in assay [1] was 1.17 µM; in assay [2], over 100 µM.

Molecule `NCCC[C@](N)(C(=O)O)C(F)F` [EFLORNITHINE] gave a half-inhibitory concentration (IC50) in assay [1] of 22.9 µM.

In assay [1], `N=C(N)c1ccc(OCCCCCOc2ccc(C(=N)N)cc2)cc1` [PENTAMIDINE ISETHIONATE] gave an IC50 of 0.0027 µM.

For `Cc1ccc(C(=O)Nc2ccc(S(=O)(=O)O)c3cc(S(=O)(=O)O)cc(S(=O)(=O)O)c23)cc1NC(=O)c1cccc(NC(=O)Nc2cccc(C(=O)Nc3cc(C(=O)Nc4ccc(S(=O)(=O)O)c5cc(S(=O)(=O)O)cc(S(=O)(=O)O)c45)ccc3C)c2)c1` [SURAMIN HEXASODIUM], the half-inhibitory concentration (IC50) in assay [1] was determined as 0.3 µM.
